ChEMBL document CHEMBL5335772, “EGCG adjuvant chemotherapy: Current status and future perspectives” (Eur J Med Chem, 2023)

Tests used:
DLD-1 [1] = assay: Antiproliferative activity against human DLD-1 cells assessed as reduction in cell growth incubated for 24 hrs by MTT assay; assay type: functional, cell-based; details: DLD-1, 24 h
DLD-1 [2] = assay: Induction of apoptosis in human DLD-1 cells in presence of EGCG at 50 uM; assay type: functional, cell-based
MCF7 = assay: Induction of apoptosis in human MCF7 cells in presence of EGCG at 50 uM
BEL-7404 tumor cell line [3] = assay: Antiproliferative activity against human BEL-7404 tumor cell line assessed as inhibition of cell proliferation incubated for 72 hrs by MTT assay; assay type: functional, cell-based; details: BEL-7404, 72 h
ADR5000 cell line [4] = assay: Antiproliferative activity against human CEM/ADR5000 cells assessed as reduction in cell viability incubated for 48 hrs by MTT assay; assay type: functional, cell-based; details: ADR5000, 48 h
BEL-7404 tumor cell line [5] = assay: Induction of apoptosis in human BEL-7404 tumor cell line in presence of EGCG at 30.5 uM; assay type: functional, cell-based
ADR5000 cell line [6] = assay: Induction of apoptosis in human CEM/ADR5000 cells in presence of EGCG at 20 uM; assay type: functional, cell-based

## O=c1[nH]cc(F)c(=O)[nH]1 [FLUOROURACIL]
DLD-1 [1]
  IC50: 150 µM
DLD-1 [2]
  IC50: 11 µM

## CC/C(=C(\c1ccccc1)c1ccc(OCCN(C)C)cc1)c1ccccc1 [TAMOXIFEN]
MCF7
  IC50: 5.8 µM

## COc1cccc2c1C(=O)c1c(O)c3c(c(O)c1C2=O)C[C@@](O)(C(=O)CO)C[C@@H]3O[C@H]1C[C@H](N)[C@H](O)[C@H](C)O1 [DOXORUBICIN]
BEL-7404 tumor cell line [3]
  IC50: 1.62 µM
ADR5000 cell line [4]
  IC50: 88.9 µM
BEL-7404 tumor cell line [5]
  IC50: 3.28 µM
ADR5000 cell line [6]
  IC50: 29.9 µM
